Results: ChEMBL document CHEMBL1123868, “Synthesis of a series of compounds related to betaxolol, a new beta 1-adrenoceptor antagonist with a pharmacological and pharmacokinetic profile optimized for the treatment of chronic cardiovascular diseases” (J Med Chem, 1987)
The source made the active and inactive calls. The rule behind the calls is not given here.

Columns and labels:
[1] = species on record: Rattus norvegicus; assay: Antihypertensive activity expressed as percentage of base-line systolic blood pressure of base-line values in spontaneously hypertensive rats (SHR) was reported after 24 hr; assay type: functional, Artery; also: test concentration or dose not given here
[2] = species on record: Rattus norvegicus; assay: Antihypertensive activity expressed as percentage of base-line systolic blood pressure of base-line values in spontaneously hypertensive rats (SHR) was reported after 2 hr; assay type: functional, Artery; also: test concentration or dose not given here
[3] = species on record: Rattus norvegicus; assay: Antihypertensive activity expressed as percentage of base-line systolic blood pressure of base-line values in spontaneously hypertensive rats (SHR) was reported after 4 hr; assay type: functional, Artery; also: test concentration or dose not given here
[4] = target: Beta-1 adrenergic receptor (Rattus norvegicus) (UniProt P18090); assay: Antagonist activity was determined against beta-1 adrenergic receptor in spontaneously beating rat atria; assay type: functional
Sequence of Beta-1 adrenergic receptor (Rattus norvegicus) (P18090 whole entry, looked up): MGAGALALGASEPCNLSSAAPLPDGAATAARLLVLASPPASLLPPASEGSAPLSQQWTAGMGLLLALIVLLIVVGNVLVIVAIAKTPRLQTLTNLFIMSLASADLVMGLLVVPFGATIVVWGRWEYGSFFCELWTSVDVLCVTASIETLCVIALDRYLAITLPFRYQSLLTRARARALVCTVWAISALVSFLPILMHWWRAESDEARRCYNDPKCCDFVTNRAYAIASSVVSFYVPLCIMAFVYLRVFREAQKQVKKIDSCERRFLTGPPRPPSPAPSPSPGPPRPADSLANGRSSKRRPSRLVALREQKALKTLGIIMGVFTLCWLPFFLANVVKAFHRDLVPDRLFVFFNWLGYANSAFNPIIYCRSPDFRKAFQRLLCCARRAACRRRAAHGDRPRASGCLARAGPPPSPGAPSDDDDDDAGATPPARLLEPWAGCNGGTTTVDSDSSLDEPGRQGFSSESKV

[5] = target: Beta-1 adrenergic receptor (Rattus norvegicus) (UniProt P18090); conditions: read-out: pA2 (converted)

CC(C)NCC(O)COc1ccc(COCC2CCC2)cc1.Cl (stereo not given)
Baseline systolic BP [1]: -1% | Baseline systolic BP [2]: -9% | Baseline systolic BP [3]: -6%

Cl.OC(CNC1CC1)COc1ccc(CCOCC2CCC2)cc1 (stereo not given)
Baseline systolic BP [1]: 0% | Baseline systolic BP [2]: 0% | Baseline systolic BP [3]: -5%

CC(C)NCC(O)COc1ccc(CCSCC2CCC2)cc1 (stereo not given)
Baseline systolic BP [1]: -3% | Baseline systolic BP [2]: -2% | Baseline systolic BP [3]: -6%

COCCc1ccc(OCC(O)CNC(C)C)cc1 (stereo not given) [METOPROLOL]
Baseline systolic BP [1]: -12% | Baseline systolic BP [2]: 4% | Baseline systolic BP [3]: -2%

CC(C)NCC(O)COc1ccc(CCOC2CCCC2)cc1 (stereo not given)
Baseline systolic BP [1]: -4% | Baseline systolic BP [2]: -17% | Baseline systolic BP [3]: -11%

CC(CCc1ccccc1)NCC(O)COc1ccc(CCOCC2CCC2)cc1 (stereo not given)
Baseline systolic BP [1]: 2% | Baseline systolic BP [2]: -1% | Baseline systolic BP [3]: 1%

COc1ccc(CCNCC(O)COc2ccc(CCOCC3CCC3)cc2)cc1OC.Cl (stereo not given)
Baseline systolic BP [1]: -6% | Baseline systolic BP [2]: -7% | Baseline systolic BP [3]: -5%

CC(C)NC[C@H](O)COc1ccc(CCOCC2CC2)cc1 [LEVOBETAXOLOL]
Baseline systolic BP [1]: -13% | Baseline systolic BP [2]: -10% | Baseline systolic BP [3]: -12%

CC(C)NCC(O)COc1ccc(CCOCC2CCC2)cc1.Cl (stereo not given)
Baseline systolic BP [1]: -4% | Baseline systolic BP [2]: -16% | Baseline systolic BP [3]: -16%

CC(C)NCC(O)COc1ccc(CCS(=O)(=O)CC2CCCO2)cc1.Cl (stereo not given)
Baseline systolic BP [1]: -3% | Baseline systolic BP [2]: -22% | Baseline systolic BP [3]: -16%

CC(C)NCC(O)COc1ccc(CCOCC2CC2)cc1.Cl (stereo not given) [BETAXOLOL HYDROCHLORIDE]
Baseline systolic BP [1]: -6% | Baseline systolic BP [2]: -22% | Baseline systolic BP [3]: -19%

CC(CC#N)NCC(O)COc1ccc(CCOCC2CCC2)cc1.Cl (stereo not given)
Baseline systolic BP [1]: -2% | Baseline systolic BP [2]: -2% | Baseline systolic BP [3]: -4%

CC(C)NCC(O)COc1ccc(CCS(=O)(=O)CC2CCCCC2)cc1.Cl (stereo not given)
Baseline systolic BP [1]: -2% | Baseline systolic BP [2]: -6% | Baseline systolic BP [3]: -2%

CC(C)NCC(O)COc1ccc(CCOC2CCCCC2)cc1 (stereo not given)
Baseline systolic BP [1]: -12% | Baseline systolic BP [2]: 4% | Baseline systolic BP [3]: -2%

CC(C)NCC(O)COc1ccc(C[S+]([O-])CC2CC2)cc1 (stereo not given)
Baseline systolic BP [1]: -2% | Baseline systolic BP [2]: -4% | Baseline systolic BP [3]: -8%

CC(C)NCC(O)COc1ccc(CCS(=O)(=O)CC2CCC2)cc1.Cl (stereo not given)
Baseline systolic BP [1]: 1% | Baseline systolic BP [2]: -4% | Baseline systolic BP [3]: -13%

CC(C)NCC(O)COc1ccc(CCCOCC2CCC2)cc1.O=C(O)C(=O)O (stereo not given)
Baseline systolic BP [1]: -1% | Baseline systolic BP [2]: -11% | Baseline systolic BP [3]: -11%

CC(=O)NCCNCC(O)COc1ccc(CCOCC2CCC2)cc1.Cl (stereo not given)
Baseline systolic BP [1]: -7% | Baseline systolic BP [2]: -6% | Baseline systolic BP [3]: -8%

CC(C)NCC(O)COc1ccc(CCOCC2CCCC2)cc1 (stereo not given)
Baseline systolic BP [1]: -8% | Baseline systolic BP [2]: -21% | Baseline systolic BP [3]: -16%

CC(C)NCC(O)COc1ccc(CCOCC2CC2)cc1 (stereo not given) [BETAXOLOL]
Baseline systolic BP [1]: 3% | Baseline systolic BP [2]: 3% | Baseline systolic BP [3]: 5%

CC(C)NCC(O)COc1ccc(C[S+]([O-])CC2CCCC2)cc1 (stereo not given)
NA [4]: inactive | Baseline systolic BP [1]: -1% | Baseline systolic BP [2]: -5% | Baseline systolic BP [3]: -7%

CC(C)NCC(O)COc1cccc2ccccc12 (stereo not given) [PROPRANOLOL]
Baseline systolic BP [1]: -9% | Baseline systolic BP [2]: 0% | Baseline systolic BP [3]: 0%

CC(C)NCC(O)COc1ccc(COCC2CC2)cc1 (stereo not given)
Baseline systolic BP [1]: -6% | Baseline systolic BP [2]: -4% | Baseline systolic BP [3]: -3%

CC(=O)Nc1ccc(OCC(O)CNC(C)C)cc1 (stereo not given) [PRACTOLOL]
Kb [5]: 186 nM

CC(C)NCC(O)COc1ccc(CCOCC2CCCCC2)cc1.Cl (stereo not given)
Baseline systolic BP [1]: -7% | Baseline systolic BP [2]: -14% | Baseline systolic BP [3]: -18%

CC(CCc1ccc(F)cc1)NCC(O)COc1ccc(CCOCC2CCC2)cc1 (stereo not given)
Baseline systolic BP [1]: -2% | Baseline systolic BP [2]: -4% | Baseline systolic BP [3]: -10%

CC(C)NCC(O)COc1ccc(CCOC2CCCC2)cc1.Cl (stereo not given)
Baseline systolic BP [1]: -7% | Baseline systolic BP [2]: -8% | Baseline systolic BP [3]: -16%
